Patent US20100145469A1, “BIOCERAMIC IMPLANTS HAVING BIOACTIVE SUBSTANCE” (priority 2007, published 2010)
“Also recorded” adds a separate entry of the source.

Tested on: angiogenesis
Test: Peritoneal implantation of Y-pore bioceramic implants in mice for 15 days, wound tissue and angiogenesis patterns
Details: for tissue response in pores: mice
[1] = DCPD implant treated with VEGF at the blind end of the closed pore

Text: In order to produce model implants for the investigation of spatially localized release of both organic (VEGF), a Y shaped hemi-cylindrical pore channel was designed in the x-y plane of DCPD cuboids with dimensions 8 mm×8 mm×3 mm. The bioceramic endoprosthesis was made in two mirror image halves 50, 52 that keyed into one another to form a Y shaped pore 51a, 51b closed at one of the branched ends (see FIGS. 2A-2C). […] In the experiments, mouse VEGF solution was deposited at the end of the closed pore.
Wound tissue and angiogenesis patterns were examined for the implanted bioceramic endoprosthesis after peritoneal implantation of the bioceramic endoprosthesis in mice for 15 days.
For experimental analysis, VEGF-impregnated bioceramic materials were prepared by passive adsorption of 200 ng or 2 μg final amount of mouse VEGF (R&D, Cedarlane Laboratories Ltd., Canada) diluted in a 5 μl volume of Hank's balanced salt solution (HBSS). Adsorption of VEGF was performed on each half of the bioceramic endoprosthesis (see FIGS. 2A-2D) at the closed end (3) of the Y-shape pore. Specimens were air-dried under a sterile laminar flow hood. Prior to VEGF impregnation, the bioceramic materials were sterilized by soaking in 70% ethanol, followed by a HEPES-NaCl buffered solution rinse, HBSS (×3), and then air-dried. Control material specimens were also impregnated with HBSS without VEGF. Higher concentrations of VEGF (400 μg/ml) were also investigated.

For “vascular endothelial growth factor [VEGF]”, the “microvessel formation (microscopic observation, FIG. 3A)” value [1] was “microvessel formation in the tissue only in the closed pore ends”, the “tissue in-growth (photographs, FIG. 3A)” value [1] was “well formed vascular tissue extended from the main pore opening to closed pore end” and the “tissue response in pores” value (DCPD implant, 200 ng VEGF deposited in closed pore ends, 15 days) was “vascular tissue throughout the pore channels; also recorded: Vascularised tissue was found inside the main open and closed pore channels”. For the same substance, the “tissue response in pores” value (DCPD implant, 2 μg VEGF deposited in pore ends, 15 days) was “vascular tissue throughout the pore channels”, the “angiogenic effect compared with untreated DCPD control (quantitative measurements)” value (DCPD implant, 15 days) was “significantly enhanced angiogenic effect” and the “tissue response in pores” value (HA implants containing VEGF, 15 days) was “very little tissue ingrowth”. The “vascularization pattern in pores” value (HA implants, 2 μg VEGF deposited in closed pore ends, 15 days implantation) was “mostly filled with clear connective tissue” and the “length of pore into which blood vessels extended” value (factor deposited at closed pore end of model implant, peritoneal implantation 15 days, factor-free controls 2 mm) was 7 mm.
